What was measured:
[1] = molecular target: T1, KCNQ2/3 ion channel (KCNQ2/3-expressing CHO-K1 cells) (Homo sapiens, UniProt O43525+O43526); experiment: Fluorescence assay (FLIPR instrument, membrane potential dye) for substances acting agonistically on the KCNQ2/3 ion channel; type: cell-based; conditions: difference between maximum and minimum values, agonistic action detected from a value of −40 (and below)
T1 construct: expressed in transfected cells; host or cells: CHO-K1
Experimental: Pharmacological Test Methods I. Fluorescence Assay (FLIPR™ Instrument) for the Identification of Substances Acting Agonistically on the KCNQ2/3 Ion Channel
On the day before the experiment, KCNQ2/3-expressing CHO-K1 cells and CHO-K1 empty strain cells were seeded out onto coated poly-D-lysine black/clear plates (Falcon/BD Company; Order No.: 356640) in a concentration of 20000 cells/100 μl MEM alpha, 50 ml FCS, 5.5 ml PIS/G/solution (100×) and then incubated for 20-24 hours in an incubator (37° C., 5% CO2). On the day of the experiment the HBSS/hepes working solution and the FMP/HBSS/hepes mixture (Membrane Potential Assay Kit Red (FMP), bulk format Cat. No. R8123) were initially prepared according to the following protocol:
• 1000 ml 1× HBSS buffer (Hank's Balanced Salt Solution (1×) (Gibco; No. 14025)+10 ml hepes (1M stock solution, pH 7.4; hepes Na salt (Sigma Company; No. H7006-500 g; storage at 4° C. in a refrigerator) 2. 1× FMP/HBSS/hepes working solution: • 6 ml HBSS/hepes buffer are added to 5 ml of the FMP solution stored at −20° C. (preparation see below; thawing out at room temperature). The test substances (2 mM batch solution in 100% DMSO) contained in drug plates (Costar 96-well plates, catalogue No. 3795) were then diluted by adding HBSS/hepes buffer to a concentration of 30 μM (3× concentrated). The assay plates on which the cells grow were washed once with 200 μl HBSS/hepes (Cellwash Washer, Labsystems Company, catalogue No. 5161550) and the remaining volume was removed by tapping out the inverted plate twice. 100 μl of the FMP/HBSS/hepes working solution were then added in each case to the cell plates and incubated for 1 hour in the CO2 incubator at 37° C. and 5% CO2. The measurements are then carried out with a FLIPR III instrument from the Molecular Devices company (96-format, using the 540-590 nm band-pass filter in the #2 localization). In the experimental setup of the FLIPR software, filter #2 should be selected. The cell plates and the substance plates were fed alternately into the input stack. A signal test was carried out in each case with the cell plates before adding the substance. The test substances were then added via the pipetting unit of the FLIPR (added volume 50 μl, 3× concentrated, end concentration 10 μM) to the cavities of the cell plates in a total volume of 150 μl/well. The threshold data of the FLIPR program were as follows:
The pipette tips were washed after each pipetting procedure 3 times with 1% DMSO in water. The times of the measurement intervals after addition of the test substances are as follows:
Total measurement time: 6 min/plate
The test samples were evaluated by calculating the difference between the maximum and minimum values. EC50/IC50 values are calculated using the Graph Pad Prism software.
Preparation of the membrane potential loading buffer (membrane potential assay kit red (FMP), bulk format cat. No. R8123) according to the manufacturer's instructions:
10 ml of the 10× assay buffer (component B) were diluted with 90 ml of sterile water and then adjusted to pH 7.4 with 1.0N NaOH (1× assay buffer). One vessel with the FLIPR membrane potential assay component A was completely dissolved in 100 ml 1× assay buffer and thoroughly mixed for 10 minutes with a magnetic stirrer. 5 ml aliquots were then stored at −20° C. (storage shelf life ca. 2 weeks).
An agonistic action can be detected starting from a value of −40 (and below).

[2] = molecular target: T2, hKCNQ2/3 (stably transfected hKCNQ2/3 CHO-K1 cell line) (Homo sapiens, UniProt O43525+O43526); experiment: Voltage clamp (patch-clamp) measurements, current increase relative to retigabin; type: cell-based; conditions: test substance 10 μM at −40 mV; current increase standardized to retigabin (10 μM) effect
T2 construct: expressed in transfected cells; host or cells: CHO-K1
Experimental: II. Voltage Clamp Measurements
In order to confirm electrophysiologically a KCNQ2/3 agonistic action of the substances, patch-clamp measurements [see Hamill O P, Marty A, Neher E, Sakmann B, Sigworth F J: “Improved patch-clamp techniques for high-resolution current recording from cells and cell-free membrane patches”, Pflugers Arch. 1981 August; 391(2):85-100] were carried out in the voltage clamp mode on a stably transfected hKCNQ2/3 CHO-K1 cell line. After formation of the gigaseal the cells were first of all clamped at a holding potential of −60 mV. Depolarising voltage jumps were then applied up to a potential of +20 mV (increment: 20 mV, duration: 1 second), in order to confirm the functional expression of KCNQ2/3 typical currents. The substances were tested at a potential of −40 mV. The current increase induced by retigabin (10 μM) was first of all recorded on each cell at −40 mV as positive control. After completely washing out the retigabin effect (duration: 80 sec) the test substance (10 μM) was applied. The current increase induced by the test substance was standardized to the retigabin effect and stated as relative efficacy (see below).

FLIPR membrane potential fluorescence change (ΔF %, max minus min); negative values indicate KCNQ2/3 agonism [1]: −56% | Voltage clamp: relative efficacy with respect to retigabin [10 μM] [2]: 1.29
Compound: Fc1cc(C(F)(F)F)ccc1CNc1noc2ccccc12 [Example 163, benzo[d]isoxazol-3-yl-(2-fluoro-4-trifluoromethyl-benzyl)-amine]

From US7696238B2, “Substituted benzo[d]isoxazol-3-yl amine compounds as analgesics” (Gruenenthal GmbH, priority 2005, dated 2010)
